{"source": "patent US20020183305A1", "about": "(Schering Corporation, priority 2001, published 2002)", "system": "Hypercholesterolemic Golden Syrian hamsters", "experiment": "In vivo efficacy in cholesterol-fed hypercholesterolemic hamsters (plasma cholesterol, plasma triglyceride, hepatic cholesteryl ester)", "key": {"[1]": {"conditions": "cholesterol-fed hamsters, versus Control, Table 1"}}, "protocol": "Male Golden Syrian hamsters (Charles River Labs, Wilmington, MA) weighing between 100 and 125 g were fed Wayne rodent chow until study onset. At study onset (Day 1) animals were separated into groups (n=4-6/group) and fed chow supplemented with 0.5% by weight of cholesterol (Research Diets Inc., New Brunswick, NJ). The Control and Test compounds were administered once daily for 7 days, starting on Day 1 via oral gavage in 0.2 ml corn oil. Corn oil was used as the Control.\nOn Day 7, blood was collected into tubes containing ethylenediaminetetraacetic acid (EDTA), and plasma was prepared by low speed centrifugation at 40C. Liver samples (0.5 g) were taken for neutral lipid analyses.\nNonfasted plasma cholesterol levels were determined by a modification of the cholesterol oxidase method, in which the reagents were available in a kit form from Wako Pure Chemicals Industries, Ltd. (Osaka, Japan). […] Assays were carried out at 37° C. for 10 min, along with cholesterol standards (Sigma Chemical Co., St. Louis, Mo.) and the resultant red quinone pigment's absorbance was determined spectrophotometrically at 505 nm.\nSamples of liver (0.5 g) were lipid extracted. Lipid extracts were dried under nitrogen into HPLC sample vials, resuspended in hexane and injected onto a Zorbax Sil (4.6×25 cm) silica column. […] Lipids were detected by absorbance at 206 nm and quantitated by computer integration (System Gold, Beckman) of elution profiles. […] Cholesteryl ester content of liver-derived samples was derived from a standard curve constructed using known amounts of cholesteryl oleate."}
{"smiles": "COc1ccc([C@@H]2[C@@H](CCCc3ccccc3)C(=O)N2c2ccc(OC)cc2)cc1", "note": "[Compound XII]", "values": [{"measurement": "effect on accumulation of hepatic cholesteryl esters (in words)", "setting": "[1]", "value": "reduced"}, {"measurement": "effect on plasma cholesterol levels (in words)", "setting": "[1]", "value": "reduced"}, {"measurement": "Hepatic Cholesteryl Ester", "setting": "male hamsters fed chow with 0.5% cholesterol, oral gavage in corn oil once daily for 7 days, liver Day 7, Compound XII 3 mg/kg/day, niacin 100 mg/kg/day", "value": "12.75 ± 1.12", "unit": "mg/g"}, {"measurement": "Plasma Cholesterol", "setting": "male hamsters fed chow with 0.5% cholesterol, oral gavage in corn oil once daily for 7 days, nonfasted plasma Day 7, Compound XII 3 mg/kg/day, niacin 100 mg/kg/day", "value": "214 ± 13", "unit": "mg/dL"}, {"measurement": "Plasma Triglyceride", "setting": "male hamsters fed chow with 0.5% cholesterol, oral gavage in corn oil once daily for 7 days, plasma Day 7, Compound XII 3 mg/kg/day, niacin 100 mg/kg/day", "value": "200 ± 30", "unit": "mg/dL"}]}
